We go through 90 molecules from a melting point compilation (Tetko et al.; mined from patent text by program, amines drawn as free bases though some values may be those of a salt).

In general, melting point refers to the temperature of the solid-liquid transition. Molecule `CC(C(=O)O)c1ccc2cc(O)ccc2c1` (stereo not given) yielded a melting point of 186 to 188 °C.

`C=CCOc1cccc(C(=O)O)c1` gave a melting point of 78 to 79 °C.

`CSC(=O)Cn1c(=O)sc2ccccc21` yielded a melting point of 146 to 147 °C.

In turn, `CCOC(=O)CN(Cc1ccccc1)c1ncnc2c(N3CCOCC3)nc(N3CCC(N(C)C)CC3)nc12` yielded a melting point of 112 to 115 °C.

The molecule `CC(=O)c1cccc2c1NCC2` had a melting point of 83 to 85 °C.

As to `CN1C(=O)C(C(=O)Nc2ccccc2)c2cc3ccccc3cc2S1(=O)=O` (stereo not given), the melting point fell in the range of 188 to 190 °C.

In turn, `COc1cc(Cc2cnc(N)nc2N)cc(-c2cccc(NS(=O)(=O)c3ccc(N)cc3)c2)c1OC` came in with a melting point of 223 to 226 °C.

Molecule `OC(CNC(=S)NCc1ccc(Cl)cc1)(Cn1cncn1)c1ccc(Cl)cc1Cl` (stereo not given) came in with a melting point of 209 to 210 °C.

Molecule `CCCNC(=O)c1c(OCc2ccc(-c3ccccc3-c3nnn[nH]3)cc2)cc(C)nc1C` came in with a melting point of 196 to 198 °C.

On to `Cn1nc(-c2ccc(Cl)cc2)n(C)c1=S`, for which the melting point lay within 113 to 115 °C.

In the case of `Cc1ccc(S(=O)(=O)Cc2c(C(=O)O)nn(-c3ccccc3)c2O)cc1`, the melting point was 228 °C.

On to `O=C(O)c1ccnc(-c2ccc3c(c2)C(c2ccc(Cl)cc2Cl)CC3)c1` (stereo not given), for which the melting point lay within 205 to 206 °C.

For `CCOC(=O)C(=O)Nc1ccc(NC(=O)C(=O)OCC)nc1`, the melting point lay within 178 to 180 °C.

Regarding `CC(=O)Nc1nc2c(Oc3cc(-c4ccc(C(F)(F)F)cc4NCc4cncn4C)ncn3)cccc2s1`, the melting point fell in the range of 263 to 265 °C.

In the case of `CCn1c(=O)c2c(nc(/C=C/c3cc(C)c(OC)cc3C)n2C)n(CC)c1=O`, the melting point fell in the range of 235 to 236 °C.

As to `CC/C=C\CCCCCCCCCCOc1ccc(C(C)=O)o1`, the melting point fell in the range of 36 to 38 °C.

`N#CC1=C(C2CCCCCC2)Nc2n[nH]cc2C1c1ccccc1Cl` (stereo not given) registered a melting point of 146 °C.

As to `COC(=O)c1ccc(CC(C)NCC(O)c2ccc(O)c(CO)c2)cc1` (stereo not given), the melting point lay in the range of 118 to 120 °C.

Turning to `N#CCON=C(CCN1CCN(c2ccccn2)CC1)c1ccccc1`, the melting point is 127 to 128 °C.

Regarding `O=C1C(CCS(=O)c2ccccc2)C(=O)N(c2ccccc2)N1c1ccccc1` (stereo not given), the melting point lay in the range of 130 to 132 °C.

Consider `CCOC(=O)C1=C(N)N=C(SCC)C(C(=O)OCC)C1c1cccc(C#N)c1` (stereo not given), for which the melting point was 153 °C.

`COc1ccc(CS(=O)(=O)Cc2ccc(OC)cc2)cc1` displayed a melting point of 108 to 123 °C.

`Clc1cccc(-c2nc(-c3ccccn3)no2)c1Cl` gave a melting point of 128 to 133 °C.

In turn, `Cc1ccc([C@@H]2c3c(C)c(N4C(=O)CC(c5ccccc5)CC4=O)c(C)c(C)c3OC2(C)C)cc1` gave a melting point of 118 to 122 °C.

In turn, `Cc1cc(C(=O)N2Cc3cccn3Cc3ccccc32)ccc1N` registered a melting point of 232 to 234 °C.

As for `CN1Cc2ccccc2[C@H]2c3cccc4c3[C@H](CN4)C[C@@H]21` (relative stereo), the melting point was 184 to 185 °C.

The molecule `O=C(O)c1c[nH]c(=O)n(-c2ccccc2S)c1=O` came in with a melting point of 254 to 255 °C.

The molecule `COc1cc(OC)c2c(c1)N(Cc1ccccn1)C(=O)C21COc2cc3c(cc21)OCCO3` (stereo not given) displayed a melting point of 187 to 188 °C.

As for `Cn1c(-c2c(F)cccc2F)nn(-c2ccccc2C(F)(F)F)c1=O`, the melting point was in the range of 98 to 99 °C.

Molecule `CN(C)C(=O)c1ccc(-c2ccc(N)cc2)cc1` displayed a melting point of 184 to 186 °C.

As for `O=C1NC(=O)C(=Cc2ccc(N3CCC(NC[C@H](O)COc4ccccc4)CC3)cc2)S1`, the melting point was in the range of 208 to 210 °C.

On to `Clc1cc(Cl)c2nc3c4ccccc4c4ccccc4c3nc2c1`, for which the melting point was 221 to 222 °C.

`O=S(=O)(c1ccccc1)n1ccc2c(CO)cccc21` returned a melting point of 89 to 91 °C.

Molecule `CC(C)c1ccccc1Sc1c(O)cc(-c2ccc(OCC3CCCCC3)cc2)oc1=O` returned a melting point of 187 to 188 °C.

As for `CS(=O)(=O)Nc1cc2oc(O)cc(=O)c2cc1Oc1ccccc1`, the melting point is greater than 250 °C.

`COc1ccc(C(=O)Sc2ccc(C(=O)O)cc2)cc1C12CC3CC(CC(C3)C1)C2` displayed a melting point of 264 °C.

Molecule `Cc1cc(Br)c2nc(OCC(F)(F)F)ccc2c1` showed a melting point of 61 to 62 °C.

In the case of `CCOC(=O)c1cc(=O)c2c(OCC(O)COc3ccc(Cl)cc3Cl)cccc2o1` (stereo not given), the melting point lay within 98 to 100 °C.

As for `CCNC(=O)NC1CCCc2sccc21` (stereo not given), the melting point lay within 184 to 188 °C.

The molecule `CCOC(=O)CN1C(=O)c2cccc3cccc(c23)C1=O` yielded a melting point of 160 to 162 °C.

`COc1ccc(-c2cc(-c3ccccc3)c(-c3ccccc3)s2)cc1` displayed a melting point of 124 to 126 °C.

In turn, `COc1cc2c(cc1OCc1ccccc1)CCN(C(C)=O)C2` gave a melting point of 125 to 126 °C.

The molecule `N#Cc1ccc(Sc2cccc3cnccc23)c(Cl)c1` displayed a melting point of 126 to 128 °C.

`CN(C)C(=O)N(c1ccc(OC(F)(F)F)c(Cl)c1)C(C(=O)O)c1ccc(Cl)cc1` (stereo not given) registered a melting point of 77 °C.

For `O=C(NC(CCO)c1ccccc1Br)c1c(F)cccc1F` (stereo not given), the melting point fell in the range of 63 to 65 °C.

`CC(/C=C/C(=O)OC(C)(C)C)=C\c1ccc(N)cc1` gave a melting point of 99 to 101 °C.

In turn, `Cc1cnc2c(c1)CCCC2C(N)=O` (stereo not given) returned a melting point of 104 °C.

In the case of `O=c1[nH]c(=O)n([C@@H]2CO[C@H](CO)[C@@H](O)C2)cc1I`, the melting point was in the range of 219 to 220 °C.

Molecule `Cc1cc(C#N)cc(C(N)=O)c1NC(=O)c1cc(Br)nn1-c1ncccc1Cl` returned a melting point greater than 255 °C.

On to `FC(F)(F)Oc1ccc(-c2ccc3[nH]c4c(ccc5cc[nH]c54)c3c2)cc1`, for which the melting point is greater than 250 °C.

With `N#CCCNC(=O)c1cccc(-c2ccc3c(c2)C(Oc2cccc(C(F)(F)F)c2)CC3)c1` (stereo not given), the melting point is 120 to 121 °C.

On to `CC(C)(C)OC(=O)NCCc1cccc(OCCC2Oc3ccccc3N(Cc3ccccc3Cl)C2=O)c1` (stereo not given), for which the melting point lay in the range of 61 to 65 °C.

`Cc1ncn(-c2cc(C)c3[nH]c(=O)ccc3c2)c1[N+](=O)[O-]` showed a melting point of 306 to 309 °C.

The molecule `Cc1c(Br)c2c(c(C)c1NC=O)C(c1ccc(C(C)C)cc1)CO2` (stereo not given) displayed a melting point of 151 to 152 °C.

`CCCN(CCC)C(=O)Cn1c(-c2cccc(Br)c2)nc2cccnc21` gave a melting point of 125 to 127 °C.

With `O=C1NC(=O)C(=Cc2ccc(N3CCC4(CC3)OCCO4)c(Br)c2)S1`, the melting point was in the range of 109 to 111 °C.

Molecule `COc1cc(OCCOCc2ccccc2)cc2nc(-c3cc(C)nc(C)c3)[nH]c(=O)c12` displayed a melting point of 178 to 180 °C.

With `CC(=O)c1cccc([N+](=O)[O-])c1Cl`, the melting point was 41 to 43 °C.

In turn, `N#Cc1ccc(OC2CCOC2=O)cc1C(F)(F)F` (stereo not given) displayed a melting point of 107 to 108 °C.

For `CC(Oc1ccc(Oc2ccc(C(F)(F)F)cc2)cc1)C(N)=O` (stereo not given), the melting point lay within 147 to 149 °C.

Regarding `COc1ccc(-c2cc3cc(F)c(F)cc3[nH]2)cc1NCc1ccc(O)c([N+](=O)[O-])c1`, the melting point lay in the range of 195 to 196 °C.

The molecule `O=c1[nH]c(=O)n(C2CC2)c2c(OC(F)F)c(F)ccc12` yielded a melting point of 215 to 221 °C.

`COc1cc2c(cc1OC)C(C#N)N(C(=O)c1ccccc1)C=C2` (stereo not given) registered a melting point of 155 to 157 °C.

`Cc1cccc(C)c1CNc1cc(C(=O)NN)cc2c1nc(C)n2C`: the melting point fell in the range of 277 to 278 °C.

In the case of `COC(=O)c1cc2ccc(C(=O)OC(C)(C)C)cc2[nH]1`, the melting point was 189 to 190 °C.

Consider `Cc1cccc(Cn2c(NC3CCN(CCO)CC3)nc3cccnc32)n1`, for which the melting point is 152 °C.

As to `CC(C)C(Nc1ccc(C(F)(F)F)cc1)C(N)=O` (stereo not given), the melting point was 93 to 94 °C.

Take `FC(F)(F)c1nnc(SCc2ccccc2Cl)s1`: the melting point was 36 to 37 °C.

In the case of `OCC1CC2CC2N1c1cncc(Br)c1` (stereo not given), the melting point lay in the range of 90.4 to 93.5 °C.

`Cc1cccc(C2=CCN(CCCn3c(=O)[nH]c4cccc(C)c4c3=O)CC2)c1` yielded a melting point of 155 to 160 °C.

`Oc1ccc2c(c1)COc1c-2cc2ccc(O)cc2c1-c1cc(Cl)cc(Cl)c1` returned a melting point of 252 to 255 °C.

Turning to `C[C@@H](C(N)=O)c1ccc(NS(=O)(=O)c2ccc(C(F)(F)F)cc2)cc1`, the melting point fell in the range of 178 to 180 °C.

In turn, `CC(C)c1ccc2c(c1)C(=O)N(C)C(c1ccc(C(C)(C)C)cc1)C2` (stereo not given) registered a melting point of 103 to 106 °C.

The molecule `Cc1cccc(NC(=O)NCC(=O)N(CC(=O)OC(C)(C)C)c2cccc(Cl)c2)c1` gave a melting point of 110 °C.

Take `O=C(c1cccs1)c1cnn2c(-c3cccc(NC(=O)C4CCCC4)c3)ccnc12`: the melting point was 209 to 210 °C.

`CCOCCc1cc(C)c(OCCN2C(C)C(Br)=C(C(N)=O)N2C)c(C)c1` (stereo not given) gave a melting point of 112 to 114 °C.

As to `Cc1c(Cl)cccc1S(=O)(=O)Nc1ccc2nccnc2c1`, the melting point lay within 166 to 167 °C.

In the case of `O=[N+]([O-])c1cc(C(F)(F)F)cc([N+](=O)[O-])c1Nc1ncc(Cl)cc1Cl`, the melting point fell in the range of 85 to 87 °C.

Molecule `CCCc1ccccc1OCCCOc1ccc2c(=O)cc(C(=O)O)oc2c1CC` returned a melting point of 198 to 199 °C.

The molecule `CSc1ccc2c(c1)N=CC(SC)C2=O` (stereo not given) registered a melting point of 90 to 92 °C.

In turn, `CCC(=O)NCCC1CCc2ccc3c(c21)OCO3` (stereo not given) showed a melting point of 102 to 104 °C.

The molecule `Cc1cccc(CC(=O)c2ccnc(-c3ccc(OC(F)(F)F)cc3)c2)n1` displayed a melting point of 60 °C.

`CC(C)(C)OC(=O)N1CCNC(=O)C1Cc1ccc(F)cc1` (stereo not given) gave a melting point of 145 to 147 °C.

`CN1CCN(S(=O)(=O)CCCOc2ccc3ncnn3n2)CC1` yielded a melting point of 140 to 141 °C.

`Cc1c(C)c2c(c(C)c1NC=O)CC(C)(CSc1nc3ccccc3s1)O2` (stereo not given): the melting point was 190 to 192 °C.

The molecule `Cc1nc(-c2cc(C#N)c(=O)[nH]c2C)cs1` displayed a melting point of 305 to 307 °C.

Molecule `NC(=O)c1[nH]cnc1OC(=O)C=Cc1ccc(C=O)cc1` displayed a melting point of 233 °C.

Take `OCCn1nnnc1S`: the melting point lay within 135 to 137 °C.

Turning to `CC1C(=CO)C(=O)c2c(O)cc(OCCCCc3ccccc3)cc2N1C=O` (stereo not given), the melting point was 101 to 103 °C.

For `CCc1cccc(CC(=O)O)c1OCCCc1cn(-c2ccc(Cl)cn2)nc1C(C)C`, the melting point lay in the range of 142 to 143 °C.
